From PMC8546428, “Convergent olfactory trace amine-associated receptors detect biogenic polyamines with distinct motifs via a conserved binding site” (The Journal of Biological Chemistry, 2021)
Substitutions are numbered along the chain they refer to.

Key:
[1] = target: T1, mTAAR9 E7.36D (Mus musculus, UniProt Q5QD04, E294D); assay: CRE-luciferase reporter assay, mTAAR9 mutant in Hana3A; format: cell-based; settings: read-out: EC50 (mean ± S.D., n = 3)
T1 construct: expressed in transfected cells; host or cells: Hana3A (HEK293-derived)
T1 sequence (Q5QD04 1-348 E294D): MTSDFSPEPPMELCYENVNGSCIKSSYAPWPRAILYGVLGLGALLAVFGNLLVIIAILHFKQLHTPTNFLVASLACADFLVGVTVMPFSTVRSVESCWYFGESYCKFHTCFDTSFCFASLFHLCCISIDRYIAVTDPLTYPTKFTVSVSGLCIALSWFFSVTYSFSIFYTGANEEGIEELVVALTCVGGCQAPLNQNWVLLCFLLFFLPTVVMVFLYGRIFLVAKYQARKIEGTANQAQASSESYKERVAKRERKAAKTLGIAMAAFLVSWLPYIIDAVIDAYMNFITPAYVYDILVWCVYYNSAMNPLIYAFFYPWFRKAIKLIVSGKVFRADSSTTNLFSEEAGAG

[2] = target: T2, mTAAR9 W7.40A (Mus musculus, UniProt Q5QD04, W298A); assay: as above; format: cell-based; settings: read-out: EC50 (mean ± S.D., n = 3)
T2 construct: expressed in transfected cells; host or cells: Hana3A (HEK293-derived)
T2 sequence (Q5QD04 1-348 W298A): T1 sequence (Q5QD04 1-348 E294D) with D294E, W298A

[3] = target: T3, sTAAR365 T7.42V (Petromyzon marinus, UniProt A0A678XMK4, T298V)
T3 sequence (A0A678XMK4 1-365 T298V): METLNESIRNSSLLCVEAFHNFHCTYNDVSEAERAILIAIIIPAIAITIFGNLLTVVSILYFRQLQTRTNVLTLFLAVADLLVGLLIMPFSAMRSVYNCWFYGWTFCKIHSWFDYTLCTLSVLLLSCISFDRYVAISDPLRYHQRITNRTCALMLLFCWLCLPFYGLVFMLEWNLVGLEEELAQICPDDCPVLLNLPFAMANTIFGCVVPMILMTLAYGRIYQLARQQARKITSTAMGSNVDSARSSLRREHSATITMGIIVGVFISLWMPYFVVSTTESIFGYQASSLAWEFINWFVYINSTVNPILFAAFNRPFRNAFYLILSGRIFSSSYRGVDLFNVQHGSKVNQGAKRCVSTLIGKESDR

[4] = target: sTAAR365 Y7.43Q (Petromyzon marinus, UniProt A0A678XMK4, Y299Q); assay: cell-based
Chain of sTAAR365 Y7.43Q (A0A678XMK4 whole entry Y299Q): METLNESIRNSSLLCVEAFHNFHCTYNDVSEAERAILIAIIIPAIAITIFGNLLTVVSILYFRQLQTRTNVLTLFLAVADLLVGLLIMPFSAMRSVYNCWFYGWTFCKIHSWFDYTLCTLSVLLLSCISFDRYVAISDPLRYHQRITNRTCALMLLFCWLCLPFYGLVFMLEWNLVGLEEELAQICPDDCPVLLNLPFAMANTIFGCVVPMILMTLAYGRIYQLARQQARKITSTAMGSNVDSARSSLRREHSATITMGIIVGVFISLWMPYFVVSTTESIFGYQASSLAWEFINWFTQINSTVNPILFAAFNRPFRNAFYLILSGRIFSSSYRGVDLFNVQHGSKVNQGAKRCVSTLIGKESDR

[5] = system: sTAAR365 Y6.51A; assay: cAMP TR-FRET assay, sTAAR365 mutant in HEK293T; format: cell-based, sea lamprey; settings: cAMP production
Description: All mutants were verified by DNA sequencing.

[6] = target: T4, sTAAR365 Y6.51L (Petromyzon marinus, UniProt A0A678XMK4, Y272L); settings: HEK293T, cAMP production
T4 sequence (A0A678XMK4 1-365 Y272L): T3 sequence (A0A678XMK4 1-365 T298V) with Y272L, V298T

[7] = system: sTAAR348; settings: expressed in HEK293T cells; cited from earlier work

In the case of NCCCCCN [cadaverine], the EC50 [1] is reported as > 1000 µM, the EC50 [2] is reported as > 1000 µM and the “increase of EC50 vs wild-type sTAAR365” value [3] is reported as “over three”. The EC50 [4] was 7 ± 0.3 µM.
In the case of NCCCCN [putrescine], the “EC50 (mean ± S.D., n = 3)” value [5] is reported as “loss” and the “EC50 (mean ± S.D., n = 3)” value [6] is reported as “loss”.
For NCCCNCCCCNCCCN [spermine], the “response of sTAAR348” value [7] is listed as “responds”.
